What was measured:
[1] = system: αGC-reactive NKT cells; experiment: Response to intravenous GGC in apoE-deficient mice (intracellular IFNγ of CD1d tetramer positive cells); assay type: in vivo; conditions: 200 ng GGC or 1.5 μg anti-CD3
Source text: Spleens and livers were harvested and TcRβ-positive, CD19-negative, CD1d tetramer positive cells analyzed for intracellular IFNγ production by flow cytometry.
This was not due to a nonspecific deficit of T cell reactivity, since intravenous administration of anti-CD3 antibodies activated αGC reactive T cells similarly in both apoE-deficient mice and controls. Thus, apoE plays a crucial role in the in vivo presentation of an exogenous lipid antigen.

[2] = system: αGC-reactive NKT cells; experiment: Response to intravenous GGC in LDL-R deficient mice; assay type: in vivo; conditions: 200 ng GGC or 1.5 μg anti-CD3
Method: D) LDLR−/− and matched wild type controls were challenged intravenously with 200 ng GGC, 1.5 μg anti-CD3 or vehicle as described in FIG. 1D. Shown are results from spleen, with similar results in the liver. Represents two separate experiments with 10 LDLR−/− and 10 wild type mice.
Finally, the response to GGC in LDL-R deficient mice was examined. […] Thus, it was concluded that the LDL-R plays a major role in the uptake of apoE-lipid antigen complexes and presentation by CD1.

[3] = molecular target: apoE (Homo sapiens, UniProt P02649); experiment: ApoE-GGC binding, heparin affinity column
apoE, sequence (P02649 19-317): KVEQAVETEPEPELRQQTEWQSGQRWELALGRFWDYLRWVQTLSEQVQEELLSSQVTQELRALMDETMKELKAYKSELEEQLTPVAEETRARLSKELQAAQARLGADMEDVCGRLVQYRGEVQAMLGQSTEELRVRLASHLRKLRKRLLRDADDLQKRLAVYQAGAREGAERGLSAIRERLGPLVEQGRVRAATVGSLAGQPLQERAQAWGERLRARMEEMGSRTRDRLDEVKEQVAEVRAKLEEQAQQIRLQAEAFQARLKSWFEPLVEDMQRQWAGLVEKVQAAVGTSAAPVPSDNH
Method: A) ApoE-GGC binding. […] Fractions were assayed for antigenic activity as in FIG. 1. There was no difference in non-specific loss to the column. Data are representative of at least six separate experiments.

[4] = system: DC; experiment: Rapidity of lipid antigen uptake: DC pulsed for varying times, then T cell stimulation; assay type: cell-based, human; conditions: free lipid in media alone
Method: A) ApoE enhances the efficiency of presentation of GGC. […] GGC (solid squares and striped bars) or sonicated free GGC (open triangles and open bars) was incubated with DC in serum-free media with 4 mg/ml BSA for the indicated times before washing and testing the ability to stimulate T cells as described in FIGS. 1 and 2. Upper panel: Dose response curve of GGC for 2 minute pulse. Lower panel: Various pulse times are shown for 50 ng/ml GGC.
To determine the rapidity and efficiency of lipid uptake into DC, free lipid antigen or apoE-bound lipid antigen was used to pulse DC for varying times before washing the cells and assaying their subsequent ability to present antigen to T cells.

[5] = system: CD1b-restricted T cell line LDN5; experiment: CD1b restricted T cell response to mycobacterial lipid antigens with or without apoE; assay type: cell-based; conditions: versus without apoE
Source text: D) Enhancement of a CD1b dependent T cell response against foreign antigens.

[6] = system: αGC reactive T cells; experiment: ApoE enhancement of GGC reactivity: DC pulsed, co-cultured with αGC reactive T cells, IFNγ ELISA; assay type: cell-based, human; conditions: for increase of antigenic potency of GGC: compared to freshly sonicated free GGC or GGC with HDL, LDL or albumin
Method: Sonicated GGC was incubated with the indicated components in serum-free media with 4 mg/ml bovine serum albumin (BSA) as a carrier for 1-2 hours (or freshly sonicated) before pulsing DC and co-culturing with αGC reactive T cells in media supplemented with 2% human serum. IFNγ was measured in 16-24 hours by ELISA.
C) Dose-dependence of apoE.

[7] = system: LDL-R; experiment: ApoB competition at the LDL-R: DC pulsed with free GGC or apoE-GGC, activation of αGC reactive T cells; assay type: cell-based, human; conditions: increasing amounts of apoB
Method: C) Free GGC or apoE-GGC was pulsed onto DC in the presence of increasing concentrations of apoB, and the subsequent activation of αGC reactive T cells was measured. There was no effect of apoB on PHA-stimulation of T cells. All data are representative of at least three experiments.
In a second approach, advantage was taken of the fact that apoB, the primary component of LDL, also binds to the LDL-R and can serve as a competitive ligand, while not binding LRP (Beisiegel et al., Nature 341:162-4 (1989)). […] As controls, increasing amounts of apoB had no effect on the dose response to free GGC (FIG. 3C) or on the PHA induced T cell response.

[8] = system: CD1c; experiment: CD1c presented antigen T cell stimulation with or without apoE; assay type: cell-based; conditions: versus without apoE
[9] = system: TT-reactive clone; assay type: cell-based
[10] = system: CD1d-reactive T cells; experiment: T cell reactivity to GGC in apoE-depleted human serum; assay type: cell-based; conditions: compared to normal human serum
Source text: Data are means of triplicate samples +/−SEM and are representative of four independent experiments using two separate apoE depletion columns and varying doses of antigen. Statistics reflect all doses in all experiments: *p<0.001, **p<0.001, ***p<0.01.

## galactosyl(α1-2)galactosyl ceramide [GGC]
[1]
  response in apoE-deficient mice versus wild type controls: drastically reduced
[2]
  response in LDL-R knockouts versus wild type controls: greatly diminished response
[3]; 10 minute incubation at room temperature
  binding of GGC to apoE: all detectable lipid antigen remained bound to apoE
[3]; in the presence of a 500-fold excess of albumin
  GGC bound to apoE: greater than 95%
[4]
  time required to achieve maximal stimulation: 4 to 6 h
[4]; 4-6 hours
  maximal stimulation relative to that achieved in 2 minutes with apoE: 48% (+/−11%)

## Glucose monomycolate
[5]
  CD1b restricted T cell activation when complexed with apoE: more efficient

## recombinant apoE: recombinant apoE
[6]
  increase of antigenic potency of GGC: ~50 fold

## apolipoprotein B [apoB]
[7]
  effect on antigen presentation by DC pulsed with apoE-GGC: dose-dependent diminution
  effect on dose response to free GGC or PHA induced T cell response: no effect

## manosyl-phosphomycoketide
[8]
  T cell stimulation by CD1c presented antigen complexed with apoE: significantly more efficient

## mycolic acid
[5]
  CD1b restricted T cell activation when complexed with apoE: more efficient

## VLDL-derived apoE: apoE derived from VLDL
[6]
  increase of antigenic potency of GGC: ~50 fold

## apolipoprotein E [apoE]
[9]
  effect on MHC class II restricted response to tetanus toxoid: no effect
[10]
  capacity of serum incubated with GGC to stimulate T cells: recovered
[6]; increasing the concentration of apoE
  effect on control T cell stimulators (CD3, PHA or PMA/ionomycin): no effect
